Experimental data published in patent US12077555B2, “STAT degraders and uses thereof” (Kymera Therapeutics, Inc., priority 2019, dated 2024).

Tests used:
E3 ligase = test: Fluorescence polarization assay, E3 ligase binding; settings: FIG. 1
[1] = tested on: STAT3-degrader-E3 ligase ternary complex; test: AlphaLISA assays, ternary complex formation and STAT3 ubiquitination; assay type: biochemical; settings: FIG. 2
STAT3 [2] = molecular target: T1, STAT3 (Homo sapiens, UniProt P40763); test: STAT3 ubiquitination in A549 lysates (FIG. 2B); assay type: cell-based; set-up: expressed in transfected cells; host or cells: A549
STAT3 [3] = molecular target: T1, STAT3; test: Quantitation of STAT3 degradation in A549 cells by Western blot; assay type: cell-based; set-up: expressed in transfected cells; host or cells: A549; settings: read-out: A549 DC50, 24 hours, tested up to 30 μM or 10 μM
How it was run: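 A549 cells treated 24 h at 37° C with compound at 30, 10, 3, 1, 0.3 μM or DMSO; RIPA lysates analysed by SDS-PAGE/Western blot for total STAT3, β-actin as loading control, LI-COR fluorescence read-out. DC50 derived by sigmoidal fit of dose-dependent degradation.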

STAT3 [4] = molecular target: T1, STAT3; test: Fluorescence polarization assay, STAT3 binding; settings: FIG. 1
ternary complex = test: AlphaLISA assay of ternary complex formation (FIG. 2A); assay type: binding
mutant STAT3 = mutant STAT3 (Homo sapiens, UniProt P40763, D661Y); test: STAT3 MSD assay, mutant STAT3 cell lines; assay type: cell-based; settings: read-out: DC50, mutant STAT3; mutant STAT3 heme cell lines, FIG. 9
Description: 100 nl of compounds were added into the intermediate plate with Echo (Labcyte 550) from source plate containing a 3-fold serial dilution from top concentration of 1 mM. Cells were seeded into 96-well plates (4×10^4 cells/well/100 ul media), mixed well, and incubated for 24 hours. The media was aspirated from the cultures and 60 μL pre-chilled PIPA lysis buffer (Boston BioProducts BP-115D) with protease/phosphatase inhibitor (Roche 05892791001/Roche 04906837001) was added into the well to lyze the cells for 20 minutes at 4° C. The MSD plate (L15XA) was coated with 2 ug/ml capture antibody (ab119352) in PBS and incubated at 4° C. overnight. The next day, the plate was washed three times with TBST (CST #99975), 150 μL/well. MSD plates were blocked with 150 μL blocking buffer per well and shaken for 1 hr at RT and 600 rpm. The blocking buffer was 3% Blocker A (MSD, R93BA-4) in TBST. The MSD plate was washed three times with 150 μL/well of TBST and 70 μL cell lysate was added into the well and shaken for 1 hour at RT and 600 rpm. […] The MSD plate washed three times with 150 μL/well of TBST and added 150 μL/well of 2×MSD reading buffer diluted from 4× (MSD, R92TC-2) with water. Lastly the MSD instrument was read.

[5] = molecular target: T2, mutant STAT3 (STAT D661Y) (Homo sapiens, UniProt P40763, D661Y); test: degradation of mutant STAT3 in HDLM-2 cell lines, dose response; assay type: cell-based; settings: dose response curve
T2 construct: endogenous in cells; host or cells: HDLM-2

A3/KAW cells = test: CellTiter-Glo cell viability, A3/KAW; assay type: cell-based; settings: DLBCL

T1 sequence (P40763 whole entry): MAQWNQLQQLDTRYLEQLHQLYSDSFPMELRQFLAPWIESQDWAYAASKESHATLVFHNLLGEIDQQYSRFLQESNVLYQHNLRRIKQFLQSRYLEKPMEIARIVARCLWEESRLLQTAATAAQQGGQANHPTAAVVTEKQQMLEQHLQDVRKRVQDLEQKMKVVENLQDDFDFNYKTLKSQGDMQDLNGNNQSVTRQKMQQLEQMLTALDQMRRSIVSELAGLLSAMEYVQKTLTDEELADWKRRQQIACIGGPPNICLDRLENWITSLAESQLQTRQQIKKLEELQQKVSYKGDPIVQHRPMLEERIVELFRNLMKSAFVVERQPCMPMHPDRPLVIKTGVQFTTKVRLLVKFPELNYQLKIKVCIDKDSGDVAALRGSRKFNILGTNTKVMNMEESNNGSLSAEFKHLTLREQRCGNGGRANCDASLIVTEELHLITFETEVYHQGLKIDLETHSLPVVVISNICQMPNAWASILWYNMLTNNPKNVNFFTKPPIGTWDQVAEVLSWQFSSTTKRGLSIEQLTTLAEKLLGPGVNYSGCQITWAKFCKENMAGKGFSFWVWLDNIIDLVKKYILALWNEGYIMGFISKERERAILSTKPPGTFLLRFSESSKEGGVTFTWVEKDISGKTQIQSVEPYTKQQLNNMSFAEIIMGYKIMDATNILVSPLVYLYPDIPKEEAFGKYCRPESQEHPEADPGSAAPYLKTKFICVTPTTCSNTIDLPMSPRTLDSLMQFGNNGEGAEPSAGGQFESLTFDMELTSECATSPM
Sequence of mutant STAT3 (P40763 2-770 D661Y): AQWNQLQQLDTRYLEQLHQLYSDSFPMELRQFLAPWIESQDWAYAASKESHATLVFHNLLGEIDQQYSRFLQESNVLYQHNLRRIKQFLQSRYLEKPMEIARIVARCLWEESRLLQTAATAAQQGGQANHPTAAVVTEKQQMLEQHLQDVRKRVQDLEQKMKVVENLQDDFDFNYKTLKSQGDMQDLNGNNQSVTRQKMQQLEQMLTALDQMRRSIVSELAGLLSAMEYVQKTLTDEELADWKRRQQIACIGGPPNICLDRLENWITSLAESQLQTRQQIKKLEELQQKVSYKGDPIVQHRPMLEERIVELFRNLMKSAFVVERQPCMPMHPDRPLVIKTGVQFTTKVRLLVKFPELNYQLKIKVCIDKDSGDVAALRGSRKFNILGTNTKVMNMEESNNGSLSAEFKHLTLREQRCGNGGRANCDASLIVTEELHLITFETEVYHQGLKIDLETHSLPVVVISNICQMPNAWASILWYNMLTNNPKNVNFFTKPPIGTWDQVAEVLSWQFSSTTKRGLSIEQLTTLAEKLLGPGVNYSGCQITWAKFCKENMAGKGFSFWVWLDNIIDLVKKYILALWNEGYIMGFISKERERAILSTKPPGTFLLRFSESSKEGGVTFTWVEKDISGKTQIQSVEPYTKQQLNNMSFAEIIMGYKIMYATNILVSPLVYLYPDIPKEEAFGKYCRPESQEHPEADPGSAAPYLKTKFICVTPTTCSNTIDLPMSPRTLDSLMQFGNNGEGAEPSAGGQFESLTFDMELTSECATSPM
T2 sequence (P40763 whole entry D661Y): as the sequence (P40763 whole entry) above, with D661Y counted along it

Compound | binding to E3 ligase (E3 ligase) | STAT3 ubiquitination [1] | formation of the STAT3-degrader-E3 ligase ternary complex [1] | STAT3 ubiquitination (STAT3 [2]) | DC50 (STAT3 [3]) [µM] | binding to STAT3 (STAT3 [4]) | ternary complex formation (ternary complex) | DC50 (mutant STAT3) [nM] | degradation of mutant STAT3 (STAT D661Y) [5] | IC50 (A3/KAW cells; 96 h, Day 4, read-out: CTG, IC50 μM, Day 4) [µM] | CTG (% Max inh), Day 4 (A3/KAW cells)
C/C(=C\C(=O)N[C@H]1CCc2cccc3c2N(C1=O)[C@H](C(=O)N[C@@H](CCC(N)=O)[C@@H](C)OCc1ccc(CCCCC(=O)N[C@H](C(=O)N2C[C@H](O)C[C@H]2C(=O)NCc2ccc(-c4scnc4C)cc2)C(C)(C)C)cc1)C3)c1ccc(C(F)(F)P(=O)(O)O)cc1 [Compound I-1, [4-[(1E)-1-[[(2S,11S)-2-[[(3S,4R)-1-carbamoyl-4-[[4-(4-[[(2S)-1-[(2S,4R)-4-hydroxy-2-([[4-(4-methyl-1,3-thiazol-5-yl)phenyl]methyl]carbamoyl)pyrrolidin-1-yl]-3,3-dimethyl-1-oxobutan-2-yl]carbamoyl]butyl)phenyl]methoxy]pentan-3-yl]carbamoyl]-12-oxo-1-azatricyclo[6.4.1.0^[4,13]]trideca-4(13),5,7-trien-11-yl]carbamoyl]prop-1-en-2-yl]phenyl]difluoromethylphosphonic acid] | binds | promotes | promotes the formation of the STAT3-degrader-E3 ligase ternary complex | STAT3 ubiquitination | < 30 | binds | efficient ternary complex formation |  |  |  | 
NC(=O)CC[C@H](NC(=O)[C@@H]1CC[C@@H]2CCN(C(=O)CCCCCC#Cc3cccc4c3CN(C3CCC(=O)NC3=O)C4=O)C[C@H](NC(=O)c3cc4cc(C(=O)P(=O)(O)O)ccc4[nH]3)C(=O)N21)C(=O)NC(c1ccccc1)c1ccccc1 (stereo partly drawn) [Compound I-111, diammonium 2-[[(5S,8S,10aR)-8-[[(1S)-3-carbamoyl-1-(diphenylmethylcarbamoyl)propyl]carbamoyl]-3-[8-[2-(2,6-dioxopiperidin-3-yl)-1-oxo-3H-isoindol-4-yl]oct-7-ynoyl]-6-oxo-octahydropyrrolo[1,2-a][1,5]diazocin-5-yl]carbamoyl]-1H-indole-5-carbonylphosphonate] |  |  |  |  | < 30 |  |  | 68 | degrading mutant STAT3 | 1.9 | (50-55) %
